This note sets out measurements from US7825256B2, “Inducible nitric oxide synthase dimerization inhibitors” (Kalypsys, Inc., priority 2004, dated 2010).

In this test the test system is rat. Nature of the test: Carrageenan test (inflamed pain). The test is classed as in vivo. To be noted: inhibition class. The source says: Injection of carrageenan subcutaneously into the hind foot (paw) of a rat induces robust inflammation and pain. The inflammatory response begins 1-2 hrs post-carrageenan injection and persists for at least five hours following inoculation. In addition, the rat's inflamed hind paw is sensitive to noxious (hyperalgesia) or innocuous (allodynia) stimuli, compared to the contralateral hind paw. Compounds can be evaluated in this model for anti-hyperalgesia and anti-inflammatory activity. […] It is possible that some compounds will affect the inflamed paw and not affect the responses of the contralateral paw.
Embodiments of the carrageenan foot edema test are performed with materials, reagents and procedures essentially as described by Winter, et al., (Proc. Soc. Exp. Biol. Med., 111, 544 (1962)). […] The rats are evaluated for their responsiveness to noxious (paw pinch, plantar test) or innocuous (cold plate, von Frey filaments) stimuli.
In a prophylactic embodiment, following determination of “Pre-carrageenan” responses, a subplantar injection of the test compound or a placebo are administered. […] Three hours (and optionally five hours) after carrageenan injection, the rats are evaluated for their responsiveness to noxious or innocuous stimuli and the paw volume was again measured. […]

Take `CN(CCCNCc1ccc2c(c1)OCO2)c1nc(-n2ccnc2)ns1` [Example 2, N′-Benzo[1,3]dioxol-5-ylmethyl-N-(3-imidazol-1-yl-[1,2,4]thiadiazol-5-yl)-N-methyl-propane-1,3-diamine]: the “Carrageenan Inflamed Pain at 30 mg/kg” value is given as “− ((−) = <40% inhibition)”.
